In patent US9469650B2, “Melampomagnolide B derivatives” (BOARD OF TRUSTEES OF THE UNIVERSITY OF ARKANSAS, priority 2013, dated 2016):

Tests used:
SR = assay: panel of 60 human tumor cell lines, growth inhibition (Leukemia)
M14 = assay: panel of 60 human tumor cell lines, growth inhibition (Melanoma)
SK-MEL-28 = assay: as above
UACC-257 = assay: as above
UACC-62 = assay: as above
SF-295 = assay: panel of 60 human tumor cell lines, growth inhibition (CNS Cancer)
SNB-19 = assay: as above
SNB-75 = assay: as above
U251 = assay: as above; details: for Percent Growth: U251
A498 = assay: panel of 60 human tumor cell lines, growth inhibition (Renal Cancer)
TK-10 = assay: as above; details: for Percent Growth: TK-10
MDA-MB-468 = assay: panel of 60 human tumor cell lines, growth inhibition (Breast Cancer)
OVCAR-3 = assay: panel of 60 human tumor cell lines, growth inhibition (Ovarian Cancer)
PC-3 = assay: panel of 60 human tumor cell lines, growth inhibition (Prostate Cancer)
A549/ATCC = assay: panel of 60 human tumor cell lines, growth inhibition (Non-Small Cell Lung Cancer); details: for Percent Growth: A549/ATCC
NCI-H23 = assay: as above
NCI-H322M = assay: as above

SMILES: C=C1C(=O)O[C@H]2[C@H]1CC/C(COC(=O)CCC(=O)NCc1ccc(Cl)nc1)=C\CC[C@@]1(C)O[C@@H]21 [JVM 96]
- GI50 (SR; Homo sapiens): 2.59 µM
- CC50 (SR; Homo sapiens, read-out: LC50): > 100 µM
- IC (TGI) (SR; Homo sapiens, read-out: TGI): 18 µM
- Percent Growth (SR; Log10 Concentration −4.0): −35%
- Percent Growth (SR; Log10 Concentration −5.0): 12%
- Percent Growth (SR; Log10 Concentration −6.0): 77%
- Percent Growth (SR; Log10 Concentration −7.0): 90%
- Percent Growth (SR; Log10 Concentration −8.0): 84%
- GI50 (M14; Homo sapiens, M14): 5.75 µM
- CC50 (M14; Homo sapiens, M14, read-out: LC50): 50.3 µM
- IC (TGI) (M14; Homo sapiens, M14, read-out: TGI): 19.5 µM
- Percent Growth (M14; M14, Log10 Concentration −4.0): −86%
- Percent Growth (M14; M14, Log10 Concentration −5.0): 35%
- Percent Growth (M14; M14, Log10 Concentration −6.0): 96%
- Percent Growth (M14; M14, Log10 Concentration −7.0): 91%
- Percent Growth (M14; M14, Log10 Concentration −8.0): 98%
- GI50 (SK-MEL-28; Homo sapiens, SK-MEL-28): 3.44 µM
- CC50 (SK-MEL-28; Homo sapiens, SK-MEL-28, read-out: LC50): 46 µM
- IC (TGI) (SK-MEL-28; Homo sapiens, SK-MEL-28, read-out: TGI): 14.8 µM
- Percent Growth (SK-MEL-28; SK-MEL-28, Log10 Concentration −4.0): −84%
- Percent Growth (SK-MEL-28; SK-MEL-28, Log10 Concentration −5.0): 17%
- Percent Growth (SK-MEL-28; SK-MEL-28, Log10 Concentration −6.0): 8.8. Percent
- Percent Growth (SK-MEL-28; SK-MEL-28, Log10 Concentration −7.0): 91%
- Percent Growth (SK-MEL-28; SK-MEL-28, Log10 Concentration −8.0): 92%
- GI50 (UACC-257; Homo sapiens, UACC-257): 8.82 µM
- CC50 (UACC-257; Homo sapiens, UACC-257, read-out: LC50): 53.2 µM
- TGI (UACC-257; UACC-257): 2.26E−5
- Percent Growth (UACC-257; UACC-257, Log10 Concentration −4.0): −87%
- Percent Growth (UACC-257; UACC-257, Log10 Concentration −5.0): 47%
- Percent Growth (UACC-257; UACC-257, Log10 Concentration −6.0): 95%
- Percent Growth (UACC-257; UACC-257, Log10 Concentration −7.0): 90%
- Percent Growth (UACC-257; UACC-257, Log10 Concentration −8.0): 88%
- GI50 (UACC-62; Homo sapiens, UACC-62): 6.61 µM
- CC50 (UACC-62; Homo sapiens, UACC-62, read-out: LC50): 51.2 µM
- IC (TGI) (UACC-62; Homo sapiens, UACC-62, read-out: TGI): 20.9 µM
- Percent Growth (UACC-62; UACC-62, Log10 Concentration −4.0): −87%
- Percent Growth (UACC-62; UACC-62, Log10 Concentration −5.0): 41%
- Percent Growth (UACC-62; UACC-62, Log10 Concentration −6.0): 90%
- Percent Growth (UACC-62; UACC-62, Log10 Concentration −7.0): 98%
- Percent Growth (UACC-62; UACC-62, Log10 Concentration −8.0): 98%
- GI50 (SF-295; Homo sapiens, SF-295): 16.6 µM
- CC50 (SF-295; Homo sapiens, SF-295, read-out: LC50): 84.2 µM
- IC (TGI) (SF-295; Homo sapiens, SF-295, read-out: TGI): 37.4 µM
- Percent Growth (SF-295; SF-295, Log10 Concentration −4.0): −61%
- Percent Growth (SF-295; SF-295, Log10 Concentration −5.0): 81%
- Percent Growth (SF-295; SF-295, Log10 Concentration −6.0): 96%
- Percent Growth (SF-295; SF-295, Log10 Concentration −7.0): 91%
- Percent Growth (SF-295; SF-295, Log10 Concentration −8.0): 93%
- GI50 (SNB-19; Homo sapiens, SNB-19): 15.6 µM
- CC50 (SNB-19; Homo sapiens, SNB-19, read-out: LC50): > 100 µM
- IC (TGI) (SNB-19; Homo sapiens, SNB-19, read-out: TGI): 42.3 µM
- Percent Growth (SNB-19; SNB-19, Log10 Concentration −4.0): −43%
- Percent Growth (SNB-19; SNB-19, Log10 Concentration −5.0): 72%
- Percent Growth (SNB-19; SNB-19, Log10 Concentration −6.0): 88%
- Percent Growth (SNB-19; SNB-19, Log10 Concentration −7.0): 96%
- Percent Growth (SNB-19; SNB-19, Log10 Concentration −8.0): 93%
- GI50 (SNB-75; Homo sapiens, SNB-75): 4.59 µM
- CC50 (SNB-75; Homo sapiens, SNB-75, read-out: LC50): 47 µM
- IC (TGI) (SNB-75; Homo sapiens, SNB-75, read-out: TGI): 20.1 µM
- Percent Growth (SNB-75; SNB-75, Log10 Concentration −4.0): −94%
- Percent Growth (SNB-75; SNB-75, Log10 Concentration −5.0): 41%
- Percent Growth (SNB-75; SNB-75, Log10 Concentration −6.0): 68%
- Percent Growth (SNB-75; SNB-75, Log10 Concentration −7.0): 69%
- Percent Growth (SNB-75; SNB-75, Log10 Concentration −8.0): 80%
- GI50 (U251; Homo sapiens, U-251): 16.7 µM
- CC50 (U251; Homo sapiens, U-251, read-out: LC50): 64.5 µM
- IC (TGI) (U251; Homo sapiens, U-251, read-out: TGI): 32.8 µM
- Percent Growth (U251; Log10 Concentration −4.0): −82%
- Percent Growth (U251; Log10 Concentration −5.0): 88%
- Percent Growth (U251; Log10 Concentration −6.0): 99%
- Percent Growth (U251; Log10 Concentration −7.0): 93%
- Percent Growth (U251; Log10 Concentration −8.0): 92%
- Percent Growth (A498; A498, Log10 Concentration −4.0): −95%
- Percent Growth (A498; A498, Log10 Concentration −5.0): 74%
- Percent Growth (A498; A498, Log10 Concentration −6.0): 95%
- Percent Growth (A498; A498, Log10 Concentration −7.0): 107%
- Percent Growth (A498; A498, Log10 Concentration −8.0): 96%
- GI50 (A498; Homo sapiens, A498): 13.9 µM
- CC50 (A498; Homo sapiens, A498, read-out: LC50): 54.2 µM
- IC (TGI) (A498; Homo sapiens, A498, read-out: TGI): 27.5 µM
- GI50 (TK-10; Homo sapiens, TK-10, TK-10): 3.83 µM
- CC50 (TK-10; Homo sapiens, TK-10, read-out: LC50): 37.9 to 50 µM
- IC (TGI) (TK-10; Homo sapiens, TK-10, read-out: TGI): 13.5 µM
- Percent Growth (TK-10; Log10 Concentration −4.0): −99%
- Percent Growth (TK-10; Log10 Concentration −5.0): 15%
- Percent Growth (TK-10; Log10 Concentration −6.0): 99%
- Percent Growth (TK-10; Log10 Concentration −7.0): 103%
- Percent Growth (TK-10; Log10 Concentration −8.0): 102%
- GI50 (MDA-MB-468; Homo sapiens, MDA-MB-468): 1.54 µM
- CC50 (MDA-MB-468; Homo sapiens, MDA-MB-468, read-out: LC50): 44.6 µM
- IC (TGI) (MDA-MB-468; Homo sapiens, MDA-MB-468, read-out: TGI): 7.38 µM
- Percent Growth (MDA-MB-468; MDA-MB-468, Log10 Concentration −4.0): −72%
- Percent Growth (MDA-MB-468; MDA-MB-468, Log10 Concentration −5.0): −10%
- Percent Growth (MDA-MB-468; MDA-MB-468, Log10 Concentration −6.0): 64%
- Percent Growth (MDA-MB-468; MDA-MB-468, Log10 Concentration −7.0): 94%
- Percent Growth (MDA-MB-468; MDA-MB-468, Log10 Concentration −8.0): 88%
- GI50 (OVCAR-3; Homo sapiens, OVCAR-3): 4.54 µM
- CC50 (OVCAR-3; Homo sapiens, OVCAR-3, read-out: LC50): 40.3 µM
- IC (TGI) (OVCAR-3; Homo sapiens, OVCAR-3, read-out: TGI): 15.7 µM
- Percent Growth (OVCAR-3; OVCAR-3, Log10 Concentration −4.0): −98%
- Percent Growth (OVCAR-3; OVCAR-3, Log10 Concentration −5.0): 24%
- Percent Growth (OVCAR-3; OVCAR-3, Log10 Concentration −6.0): 100%
- Percent Growth (OVCAR-3; OVCAR-3, Log10 Concentration −7.0): 107%
- Percent Growth (OVCAR-3; OVCAR-3, Log10 Concentration −8.0): 96%
- GI50 (PC-3; Homo sapiens, PC-3): 15.6 µM
- CC50 (PC-3; Homo sapiens, PC-3, read-out: LC50): 75.7 µM
- IC (TGI) (PC-3; Homo sapiens, PC-3, read-out: TGI): 34.3 µM
- Percent Growth (PC-3; PC-3, Log10 Concentration −4.0): −68%
- Percent Growth (PC-3; PC-3, Log10 Concentration −5.0): 78%
- Percent Growth (PC-3; PC-3, Log10 Concentration −6.0): 93%
- Percent Growth (PC-3; PC-3, Log10 Concentration −7.0): 92%
- Percent Growth (PC-3; PC-3, Log10 Concentration −8.0): 90%
- Percent Growth (A549/ATCC; Log10 Concentration −4.0): −66%
- Percent Growth (A549/ATCC; Log10 Concentration −5.0): 83%
- Percent Growth (A549/ATCC; Log10 Concentration −6.0): 104%
- Percent Growth (A549/ATCC; Log10 Concentration −7.0): 93%
- Percent Growth (A549/ATCC; Log10 Concentration −8.0): 92%
- GI50 (A549/ATCC; Homo sapiens, A549): 16.7 µM
- CC50 (A549/ATCC; Homo sapiens, A549, read-out: LC50): 77.8 µM
- IC (TGI) (A549/ATCC; Homo sapiens, A549, read-out: TGI): 36.1 µM
- GI50 (NCI-H23; Homo sapiens, NCI-H23): 18.4 µM
- CC50 (NCI-H23; Homo sapiens, NCI-H23, read-out: LC50): > 100 µM
- IC (TGI) (NCI-H23; Homo sapiens, NCI-H23, read-out: TGI): 45.7 µM
- Percent Growth (NCI-H23; NCI-H23, Log10 Concentration −4.0): −43%
- Percent Growth (NCI-H23; NCI-H23, Log10 Concentration −5.0): 83%
- Percent Growth (NCI-H23; NCI-H23, Log10 Concentration −6.0): 103%
- Percent Growth (NCI-H23; NCI-H23, Log10 Concentration −7.0): 103%
- Percent Growth (NCI-H23; NCI-H23, Log10 Concentration −8.0): 96%
- GI50 (NCI-H322M; Homo sapiens): 29.6 µM
- CC50 (NCI-H322M; Homo sapiens, read-out: LC50): > 100 µM
- IC (TGI) (NCI-H322M; Homo sapiens, read-out: TGI): > 100 µM
- Percent Growth (NCI-H322M; Log10 Concentration −4.0): 5%
- Percent Growth (NCI-H322M; Log10 Concentration −5.0): 90%
- Percent Growth (NCI-H322M; Log10 Concentration −6.0): 99%
- Percent Growth (NCI-H322M; Log10 Concentration −7.0): 95%
- Percent Growth (NCI-H322M; Log10 Concentration −8.0): 92%
